We go through six compounds from paper PMC11242996, “IL-6 Inhibitory Compounds from the Aerial Parts of Piper attenuatum and Their Anticancer Activities on Ovarian Cancer Cell Lines” (Molecules, 2024).

Where two headings read alike, the source gives them in different places.

A short description of data set [1]: Cytotoxicity (CC50) in HEK-Blue IL-6 cells. In kind it is cell-based. Particulars: human, from extrapolated concentration-response curves. The method, then: (§1) The HEK-Blue™ IL-6 cells purchased from InvivoGen (San Diego, CA, USA) were used to seed 3 × 10^4 cells/200 µL in a 96-well plate. Each well was treated with different concentrations (0, 0.1, 1, 5, 10, 50, and 100 μM) of the isolated compounds. Recombinant human IL-6 (BioLegend, San Diego, CA, USA) was administered at 10 ng/mL. After 24 h, 20 μL of the cell suspension was added to 180 μL of QUANTI-Blue™ solution (InvivoGen, San Diego, CA, USA) in a fresh 96-well plate. After incubation at 37 °C for 2 h, the absorbance was measured spectrophotometrically (Epoch, BioTek Instruments, Winooski, VT, USA) at 635 nm. The EC50 values were calculated from a log([drug]) versus normalized response curve fit using GraphPad Prism version 5.00 for Windows (GraphPad Software, San Diego, CA, USA). The CC50 values were calculated from extrapolated concentration–response curves plotted with GraphPad Prism version 5.0 for Windows (GraphPad Software, San Diego, CA, USA) using inhibitory percentages versus the drug concentration logarithm.

In data set [2] the test system is IL-6 activity in HEK-Blue™ IL-6 cells. Nature of the data set: IL-6 inhibition bioassay using HEK-Blue IL-6 cells (STAT3-inducible SEAP reporter, QUANTI-Blue). In kind it is cell-based, human. Particulars: for inhibition of IL-6 activity: 10 ng/ml hIL-6, 24 h (Figure S22); for EC50: 10 ng/mL IL-6, 24 h, SEAP readout, read-out: EC50 (IL-6 inhibitory activity). The method, then:
We isolated eighteen compounds from P. attenuatum and assessed their inhibitory effects on IL-6 activity using the HEK-Blue™ IL-6 cell line. As the HEK-Blue™ IL-6 cells were transfected with a reporter gene expressing STAT3-inducible secreted embryonic alkaline phosphatase (SEAP), STAT3 was activated, and SEAP was produced when the cells were stimulated with IL-6. The extent of the inhibition of IL-6 downstream signaling by these compounds was assessed in vitro using bazedoxifene (gp130 inhibitor) as a positive control in the HEK-Blue™ IL-6 cells. Bazedoxifene is a newly developed third-generation indole-based estrogen receptor (ER) ligand used in the treatment of postmenopausal osteoporosis, also known as gp130 inhibitor.
The cells were treated with increasing concentrations of the eighteen isolated compounds (0, 0.1, 1, 5, 10, 50, and 100 μM) in the presence of 10 ng/mL IL-6.
as §1

The subject of data set [3] is SKOV3 cells. As to the kind of experiment: CCK-8 cytotoxicity assay, SKOV3. In kind it is cell-based, human. Particulars: CCK-8, 24 h. From the text: (§2) However, despite chemotherapy, many patients die of ovarian cancer recurrence. Inflammatory mediators such as IL-6 and several other cytokines influence drug resistance and recurrence in ovarian cancer.
(§3) The human epithelial ovarian cancer cell lines SKOV3 and A2780 were purchased from the Korean Cell Line Bank (KCLB, Seoul, Republic of Korea) and the European Collection of Cell Cultures (ECACC, Wiltshire, UK), respectively. The cisplatin-resistant A2780 (A2780-cis) and paclitaxel-resistant SKOV3 (SKOV3-TR) cells were obtained from Yonsei University (Institute of Women’s Life Medical Science, Division of Gynecological Oncology, Republic of Korea). SKOV3, SKOV3-TR, A2780, and A2780-cis cells were cultured in the RPMI-1640 medium (Welgene, Daegu, Republic of Korea). SKOV3-TR and A2780-cis cells were cultured in 100 nM paclitaxel (Cayman Chemical Company, Ann Arbor, MI, USA) and 1 µM cisplatin (Dong-A Pharmaceutical Co., Seoul, Republic of Korea), respectively. All the culture media were supplemented with 10% (v/v) fetal bovine serum and 1% penicillin or streptomycin (Gibco-BRL, Gaithersburg, MD, USA), and the cells were maintained at 37 °C in a humidified atmosphere of 5% CO2 and 95% air. Each culture medium was replaced with a fresh medium every 2–3 days.
(§4) A CCK-8 assay was performed to assess cytotoxicity. After seeding 5 × 10^5 cells/300 µL in 48-well plates, the cells were treated with the isolated compounds at 1, 5, 10, 20, 40, and 60 μM concentrations for 24 h. For the CCK-8 analysis, 30 μL of the CCK-8 solution (Dojindo, Kumamoto, Japan) was added to each well, allowed to react for 1 h, and then, the optical density value was measured at 450 nm using an ELISA microplate reader (Epoch, BioTek Instruments, Winooski, VT, USA). All the experiments were performed in triplicates. The IC50 values were calculated from a log([drug]) versus normalized response curve fit using GraphPad Prism version 5.00 for Windows (GraphPad Software, San Diego, CA, USA).
(Formazan colour is commonly taken as a measure of viable cells.)

Data set [4] concerns paclitaxel-resistant SKOV3 (SKOV3-TR) cells. Nature of the data set: CCK-8 cytotoxicity assay, SKOV3-TR. In kind it is cell-based. Particulars: Homo sapiens, SKOV3TR, CCK-8, 24 h.
Text: as §2, §3, §4

For data set [5], the system named is cisplatin-resistant A2780 (A2780-cis) cells. As to the kind of experiment: CCK-8 cytotoxicity assay, A2780-cis. In kind it is cell-based. Particulars: Homo sapiens, A2780cis, CCK-8, 24 h.
Text: as §2, §3, §4

Data set [6] concerns A2780 cells. Nature of the data set: CCK-8 cytotoxicity assay, A2780. In kind it is cell-based, human. Particulars: CCK-8, 24 h.
Text: as §2, §3, §4

Setting [7] is: Homo sapiens, HEK-Blue IL-6, 24 h.

For orientation: CC50 means the concentration giving 50% cytotoxicity. As usually defined, the EC50 is the concentration that produces a half-maximal response. What is called IC50 is the point on the concentration scale where inhibition reaches its midpoint. Low values mean inhibition by little substance, high ones a need for much substance. Take `CC(=O)/C=C/[C@@]1(O)C(C)=CC(=O)CC1(C)C` [Compound 11, (6S)-dehydrovomifoliol]: in data set [1], the CC50 at 24 h was 13.72 ± 0.11 µM. Moreover, in data set [2], the “inhibition of IL-6 activity” value was “approximately 50%”. The EC50 in data set [2] (setting [7]) turned out to be 2.12 ± 0.04 µM. Further, the IC50 in data set [3] is 10.7 ± 0.14 µM; in data set [3] (Homo sapiens, SK-OV-3, 24 h), about 10 µM; in data set [4], 19.9 ± 0.22 µM; in data set [5], 14.4 ± 0.21 µM; in data set [6] it was 9.8 ± 0.11 µM; in data set [6] (Homo sapiens, A2780, 24 h), about 10 µM.

Consider `COc1ccc(CC2=C(Cc3ccc4c(c3)OCO4)C(=O)NC2OC)cc1OC` (stereo not drawn) [Compound 3, piperimide III], for which the CC50 at 24 h in data set [1] was 28.7 ± 0.19 µM. The “inhibition of IL-6 activity” value in data set [2] was “approximately 50%”. In addition, the EC50 in data set [2] (setting [7]) was determined as 3.52 ± 0.14 µM. Moreover, the IC50 is 15.76 ± 0.15 µM in data set [3] (Homo sapiens, SK-OV-3, 24 h); 41 ± 1.18 µM in data set [4]; 40.5 ± 1.11 µM in data set [5]; 17.5 ± 0.19 µM in data set [6] (Homo sapiens, A2780, 24 h).

Take `CC1(C)C[C@@H](O)C[C@@]2(C)OC(=O)C=C12` [Compound 12, (-)-loliolide]: the CC50 at 24 h in data set [1] was 10.6 ± 0.1 µM. Moreover, the “inhibition of IL-6 activity” value in data set [2] is recorded as “approximately 50%”. Moreover, the EC50 in data set [2] (setting [7]) was found to be 0.91 ± 0.04 µM. Further, the IC50 in data set [3] was 10.7 ± 0.31 µM; in data set [3] (Homo sapiens, SK-OV-3, 24 h), about 10 µM; in data set [4], 6.44 ± 0.1 µM; in data set [5], 16.6 ± 0.18 µM; in data set [6], 8.62 ± 0.1 µM; in data set [6] (Homo sapiens, A2780, 24 h) it was about 10 µM.

`O=c1cc(-c2ccc(O)cc2)oc2c(C3OC(CO)C(O)C(O)C3OC3OCC(O)(CO)C3O)c(O)cc(O)c12` (stereo not drawn) [Compound 17, ficuflavoside]: in data set [1], the CC50 at 24 h is 32.5 ± 0.45 µM. Moreover, in data set [2], the “inhibition of IL-6 activity” value was “approximately 50%”. Also, the 50% effective concentration (EC50) in data set [2] (setting [7]) was found to be 1.31 ± 0.05 µM. The IC50 in data set [3] (Homo sapiens, SK-OV-3, 24 h) was 26.6 ± 0.3 µM; in data set [4] it was 40.3 ± 0.85 µM; in data set [5], 41 ± 0.63 µM; in data set [6] (Homo sapiens, A2780, 24 h) it was 21.8 ± 0.45 µM.

For the compound `COc1ccc(C[C@H]2COC(=O)[C@@H]2Cc2ccc(OC)c(OC)c2)cc1OC` [Compound 4, (-)-dimethylmatairesinol], the CC50 at 24 h in data set [1] is 22.6 ± 0.25 µM. Moreover, the “inhibition of IL-6 activity” value in data set [2] is recorded as “approximately 50%”. Besides, the 50% effective concentration (EC50) in data set [2] (setting [7]) was 4.06 ± 0.07 µM. Besides, the IC50 in data set [3] (Homo sapiens, SK-OV-3, 24 h) was 20.04 ± 0.18 µM; in data set [4], 33 ± 0.5 µM; in data set [5], 16.9 ± 0.19 µM; in data set [6] (Homo sapiens, A2780, 24 h) it was 20.6 ± 0.25 µM.

On to `Cc1c(-c2ccc(O)cc2)n(Cc2ccc(OCCN3CCCCCC3)cc2)c2ccc(O)cc12` [Bazedoxifene, bazedoxifene, reference compound], for which the CC50 at 24 h in data set [1] is 4.07 ± 0.35 µM. Moreover, the “TI (therapeutic index, CC50/EC50)” value is listed as 2.14 ± 0.78 in data set [2] and 2.14 in data set [2] (listed as bazedoxifene). Moreover, the half-maximal effective concentration (EC50) in data set [2] turned out to be 1.91 ± 0.43 µM; in data set [2] (setting [7]), 1.91 ± 2.84 µM. Also, the IC50 in data set [3] (Homo sapiens, SK-OV-3, 24 h) was determined as 7.25 ± 0.62 µM; in data set [4] it was 20.32 ± 0.2 µM; in data set [5] it was 33.8 ± 0.15 µM; in data set [6] (Homo sapiens, A2780, 24 h) it was 8.2 ± 1.77 µM.
